{"source": "patent US9782454B2", "about": "(LONGEVITY BIOTECH, INC., priority 2010, dated 2017)", "origin": "cited, not measured here", "key": {"guinea pig ileum": {"test_system": "guinea pig ileum", "details": "read-out: EC50 for contraction of guinea pig ileum; cited from earlier work"}, "neurotensin receptor": {"molecular_target": "T1, neurotensin receptor (Mus musculus, UniProt O88319)", "T1 construct": "from tissue; host or cells: neonatal mouse brain (value quoted from the literature)", "T1 sequence (O88319 whole entry)": "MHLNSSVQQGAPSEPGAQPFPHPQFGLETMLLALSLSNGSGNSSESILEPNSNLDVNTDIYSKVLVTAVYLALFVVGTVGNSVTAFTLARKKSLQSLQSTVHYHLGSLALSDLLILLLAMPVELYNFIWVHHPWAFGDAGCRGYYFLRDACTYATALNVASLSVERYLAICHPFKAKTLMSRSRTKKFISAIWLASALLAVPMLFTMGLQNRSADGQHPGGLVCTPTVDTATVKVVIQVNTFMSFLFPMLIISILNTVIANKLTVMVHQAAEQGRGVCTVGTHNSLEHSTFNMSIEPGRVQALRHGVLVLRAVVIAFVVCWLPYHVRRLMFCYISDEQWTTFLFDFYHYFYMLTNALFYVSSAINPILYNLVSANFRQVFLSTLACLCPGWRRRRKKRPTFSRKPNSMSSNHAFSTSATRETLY", "details": "read-out: IC50 for inhibition of {125I}-NT binding to neonatal mouse brain; cited from earlier work"}, "glucagon receptors": {"molecular_target": "glucagon receptors (Homo sapiens, UniProt P47871)", "sequence (P47871 26-477)": "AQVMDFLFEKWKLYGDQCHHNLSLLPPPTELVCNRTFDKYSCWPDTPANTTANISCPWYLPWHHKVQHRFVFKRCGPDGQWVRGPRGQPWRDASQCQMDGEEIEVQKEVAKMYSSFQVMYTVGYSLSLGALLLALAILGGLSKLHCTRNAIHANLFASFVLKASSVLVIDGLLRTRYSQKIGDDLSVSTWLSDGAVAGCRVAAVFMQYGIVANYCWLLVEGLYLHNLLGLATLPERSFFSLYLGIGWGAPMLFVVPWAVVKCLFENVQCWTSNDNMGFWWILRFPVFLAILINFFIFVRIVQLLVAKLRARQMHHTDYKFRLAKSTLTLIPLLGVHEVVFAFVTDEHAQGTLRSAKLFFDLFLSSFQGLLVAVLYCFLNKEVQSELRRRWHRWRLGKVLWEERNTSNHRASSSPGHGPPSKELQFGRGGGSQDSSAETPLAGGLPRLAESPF", "details": "cited from earlier work"}, "GRF receptors": {"molecular_target": "T2, GRF receptors (Homo sapiens, UniProt Q02643)", "T2 sequence (Q02643 23-423)": "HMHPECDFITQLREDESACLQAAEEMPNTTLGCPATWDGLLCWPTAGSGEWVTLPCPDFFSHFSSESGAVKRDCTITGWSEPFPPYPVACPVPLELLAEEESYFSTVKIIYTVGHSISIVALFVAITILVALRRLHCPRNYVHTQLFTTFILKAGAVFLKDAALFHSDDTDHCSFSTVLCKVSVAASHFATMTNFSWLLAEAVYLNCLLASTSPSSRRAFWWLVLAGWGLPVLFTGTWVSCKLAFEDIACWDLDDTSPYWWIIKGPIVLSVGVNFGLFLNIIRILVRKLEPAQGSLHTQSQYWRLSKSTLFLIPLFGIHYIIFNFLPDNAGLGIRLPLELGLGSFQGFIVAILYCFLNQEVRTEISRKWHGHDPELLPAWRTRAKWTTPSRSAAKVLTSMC", "details": "cited from earlier work"}, "secretin receptors": {"molecular_target": "secretin receptors (Homo sapiens, UniProt P47872)", "sequence (P47872 23-440)": "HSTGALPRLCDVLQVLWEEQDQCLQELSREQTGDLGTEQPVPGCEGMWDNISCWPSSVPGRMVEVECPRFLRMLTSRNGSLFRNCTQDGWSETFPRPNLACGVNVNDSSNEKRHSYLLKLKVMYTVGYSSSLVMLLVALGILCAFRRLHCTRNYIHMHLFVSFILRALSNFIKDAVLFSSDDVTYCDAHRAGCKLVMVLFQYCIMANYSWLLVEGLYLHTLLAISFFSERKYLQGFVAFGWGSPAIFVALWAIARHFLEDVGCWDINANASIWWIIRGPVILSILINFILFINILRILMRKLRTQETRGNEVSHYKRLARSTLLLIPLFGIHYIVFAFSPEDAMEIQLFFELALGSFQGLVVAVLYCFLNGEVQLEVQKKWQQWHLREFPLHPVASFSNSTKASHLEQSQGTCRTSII", "details": "cited from earlier work"}, "[1]": {"molecular_target": "vasoactive intestinal peptide (VIP) receptor", "details": "read-out: IC50, selective VIP antagonist; cited from earlier work"}, "14.3.3 proteins": {"molecular_target": "14.3.3 proteins", "details": "read-out: KD, antagonist of 14.3.3 proteins; cited from earlier work"}, "neurotensin receptors": {"molecular_target": "neurotensin receptors", "details": "read-out: IC50 for inhibition of {Trp11}-NT binding to rat brain receptors; cited from earlier work"}, "mCRF2β": {"molecular_target": "T3, mCRF2β (Mus musculus, UniProt Q60748)", "T3 construct": "expressed in transfected cells; host or cells: HEK-mCRF2β cells (value quoted from the literature)", "T3 sequence (Q60748 1-431 isoform Q60748-2)": "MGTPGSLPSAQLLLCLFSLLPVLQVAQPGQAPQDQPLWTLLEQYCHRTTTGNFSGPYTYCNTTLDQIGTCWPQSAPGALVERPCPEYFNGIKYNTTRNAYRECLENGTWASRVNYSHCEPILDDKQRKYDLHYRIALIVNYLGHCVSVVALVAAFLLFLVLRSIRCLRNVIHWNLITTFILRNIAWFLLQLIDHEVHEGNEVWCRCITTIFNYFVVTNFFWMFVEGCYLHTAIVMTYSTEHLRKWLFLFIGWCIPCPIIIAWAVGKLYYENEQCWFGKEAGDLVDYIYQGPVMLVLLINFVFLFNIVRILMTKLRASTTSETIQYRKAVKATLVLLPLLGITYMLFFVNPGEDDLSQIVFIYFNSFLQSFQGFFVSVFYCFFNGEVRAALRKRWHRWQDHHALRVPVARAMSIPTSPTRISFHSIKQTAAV", "details": "cited from earlier work"}, "mouse CRF2β": {"molecular_target": "mouse CRF2β (Mus musculus, UniProt Q60748)", "sequence (Q60748 1-431 isoform Q60748-2)": "as above", "details": "read-out: Kd for binding to mouse CRF2β; cited from earlier work"}, "rat CRF1 receptors": {"molecular_target": "T4, rat CRF1 receptors (Rattus norvegicus, UniProt P35353)", "T4 sequence (P35353 24-415)": "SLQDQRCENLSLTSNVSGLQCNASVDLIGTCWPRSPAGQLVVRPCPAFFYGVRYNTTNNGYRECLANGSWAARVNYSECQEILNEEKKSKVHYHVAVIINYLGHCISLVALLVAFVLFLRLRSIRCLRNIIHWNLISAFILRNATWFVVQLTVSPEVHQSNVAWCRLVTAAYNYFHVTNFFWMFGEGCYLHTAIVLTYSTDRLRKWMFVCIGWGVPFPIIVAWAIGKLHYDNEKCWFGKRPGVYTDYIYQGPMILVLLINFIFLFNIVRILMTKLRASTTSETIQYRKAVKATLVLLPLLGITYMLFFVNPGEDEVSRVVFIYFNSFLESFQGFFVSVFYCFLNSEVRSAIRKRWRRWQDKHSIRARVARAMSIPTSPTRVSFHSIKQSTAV", "details": "read-out: Kd for binding to rat CRF1 receptors; cited from earlier work"}}, "note": "Non-standard residues stand in square brackets, D forms with d. No end group written: not given here. dPhe(4-Cl) = N[C@H](Cc1ccc(Cl)cc1)C(=O)O", "data": [{"substance": "JMV 449 (IARRHPYFL; Kinetensin)", "values": [{"measurement": "EC50", "setting": "guinea pig ileum", "value": 1.9, "unit": "nM"}, {"measurement": "IC50", "setting": "neurotensin receptor", "value": 0.15, "unit": "nM"}]}, {"substance": "{D-p-C1-Phe6,Leu17}-VIP ([dPhe(4-Cl)]TDNYTRLRKQMAVKKYLNSILN-NH2)", "values": [{"measurement": "activity on glucagon receptors", "setting": "glucagon receptors", "value": "no activity"}, {"measurement": "activity on GRF receptors", "setting": "GRF receptors", "value": "no activity"}, {"measurement": "activity on secretin receptors", "setting": "secretin receptors", "value": "no activity"}, {"measurement": "IC50", "setting": "[1]", "value": 126, "unit": "nM"}]}, {"substance": "R18 (RYVVLPRPVCFEKGMNYTVR; Peptide F9) [Compound R18]", "values": [{"measurement": "Kd", "setting": "14.3.3 proteins", "value": "~80", "unit": "nM"}]}, {"substance": "Neuromedin N (rat, mouse, porcine, canine) (KIPYIL; Neuromedin N; UniProt P20068 142-147, looked up)", "values": [{"measurement": "IC50", "setting": "neurotensin receptors", "value": 16.7, "unit": "nM"}]}, {"substance": "Antisauvagine-30", "values": [{"measurement": "pA2, inhibition of sauvagine-stimulated cAMP accumulation in HEK-mCRF2β cells", "setting": "mCRF2β", "value": "sauvagine-stimulated cAMP accumulation in HEK-mCRF2β cells (pA2 = 8.49). Prevents stress-"}, {"measurement": "Kd", "setting": "mouse CRF2β", "value": 1.4, "unit": "nM"}, {"measurement": "Kd", "setting": "rat CRF1 receptors", "value": 154, "unit": "nM"}]}]}
